Assay results published in publication PMC9071444 (Nucleic Acids Research, 2022).
“Also recorded” adds a separate entry of the source. Read-outs that look alike come from different tables or passages of the source.

Key:
TBEV-5 [1] = assay type: binding, tick-borne encephalitis virus
[2] = tested on: SuperScript IV reverse transcriptase; assay type: biochemical
TBEV-5 [3] = assay type: binding, tick-borne encephalitis virus; remark: listed apart in the source
TBEV-5 [4] = assay type: binding, tick-borne encephalitis virus; remark: listed apart in the source
TBEV-5 [5] = assay type: binding, tick-borne encephalitis virus; remark: listed apart in the source
[6] = tested on: RNA G4 derived from the Nipah virus and ZIKV genomes; settings: cited from earlier work
[7] = tested on: Japanese encephalitis virus RdRp; assay type: biochemical
in vitro = settings: pig
TBEV strain Neudoerfl [8] = assay: microbe, parasite or virus in culture; settings: Tick-borne encephalitis virus, 48 h
[9] = tested on: TBEV strains Neudoerfl and Hypr; assay: microbe, parasite or virus in culture; assay type: cell-based, tick-borne encephalitis virus; settings: for EC50: read-out: EC50
TBEV strain Neudoerfl [10] = tested on: TBEV strain Neudoerfl
TBEV strain Hypr [11] = assay: microbe, parasite or virus in culture; settings: Tick-borne encephalitis virus, 48 h
TBEV strain Hypr [12] = tested on: TBEV strain Hypr
ZIKV virus = settings: 100 μM; cited from earlier work
[13] = tested on: SuperScript IV reverse transcriptase; assay type: biochemical; remark: listed apart in the source
TBEV strain Hypr [14] = assay type: cell-based, tick-borne encephalitis virus
TBEV strain Neudoerfl [15] = assay type: cell-based, tick-borne encephalitis virus
TBEV strain Hypr [16] = assay type: cell-based, tick-borne encephalitis virus; remark: listed apart in the source
[17] = tested on: Viral genome RNA from the TBEV strain Hypr; assay type: cell-based, tick-borne encephalitis virus
[18] = tested on: TBEV strains Neudoerfl and Hypr; assay type: cell-based, tick-borne encephalitis virus
ZIKV NS2B-NS3 protease = settings: cited from earlier work
ZIKV = settings: cited from earlier work
[19] = biological target: Japanese encephalitis virus RdRp (Japanese encephalitis virus, UniProt P32886); assay type: biochemical
HCV RdRp = settings: cited from earlier work
[20] = Tick-borne encephalitis virus, 48 h

Chain of Japanese encephalitis virus RdRp (Japanese encephalitis virus, UniProt P32886) (P32886 2528-3432 limits assumed): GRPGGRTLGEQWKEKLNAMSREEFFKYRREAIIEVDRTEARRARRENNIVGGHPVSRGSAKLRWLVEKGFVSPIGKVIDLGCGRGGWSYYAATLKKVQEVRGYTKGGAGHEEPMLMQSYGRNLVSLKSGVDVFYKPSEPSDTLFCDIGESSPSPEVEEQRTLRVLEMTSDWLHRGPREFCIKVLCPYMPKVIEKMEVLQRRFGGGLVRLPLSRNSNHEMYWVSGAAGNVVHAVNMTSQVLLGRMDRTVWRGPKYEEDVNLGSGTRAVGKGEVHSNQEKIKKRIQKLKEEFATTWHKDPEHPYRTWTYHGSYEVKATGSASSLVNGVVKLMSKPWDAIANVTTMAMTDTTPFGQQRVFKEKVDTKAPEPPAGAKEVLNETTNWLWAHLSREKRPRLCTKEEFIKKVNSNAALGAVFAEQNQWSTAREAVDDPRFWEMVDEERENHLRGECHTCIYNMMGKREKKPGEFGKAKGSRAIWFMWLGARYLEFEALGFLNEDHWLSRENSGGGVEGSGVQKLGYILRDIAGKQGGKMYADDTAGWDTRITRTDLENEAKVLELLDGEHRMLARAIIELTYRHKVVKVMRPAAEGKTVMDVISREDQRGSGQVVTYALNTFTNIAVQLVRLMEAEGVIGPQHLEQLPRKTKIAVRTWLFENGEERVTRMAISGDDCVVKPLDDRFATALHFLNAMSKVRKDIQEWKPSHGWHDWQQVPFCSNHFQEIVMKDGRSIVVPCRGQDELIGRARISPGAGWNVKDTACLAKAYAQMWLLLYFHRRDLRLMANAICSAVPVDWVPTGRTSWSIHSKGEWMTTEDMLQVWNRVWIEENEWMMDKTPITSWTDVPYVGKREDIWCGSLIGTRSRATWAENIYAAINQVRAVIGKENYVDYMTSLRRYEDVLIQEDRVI

Molecule	Increase in Tm of TBEV-5 G4 (TBEV-5 [4])	G4 specificity of binding (titration curves with TBEV-5 versus TBEV-5mut) (TBEV-5 [5])	CC50 (PS cells) [µM]	RdRp activity relative to no-ligand control [7] [%]	SI (CC50/EC50) (TBEV strain Neudoerfl [10])	SI (CC50/EC50) (TBEV strain Hypr [12])	EC50 (TBEV strain Neudoerfl [10]) [µM]	EC50 (TBEV strain Hypr [12]) [µM]	Course of anti-TBEV activity over time [9]	Inhibition of RT [13]	Phase of the viral replication cycle in which the antiviral action takes effect (TBEV strain Hypr [14])	also measured
5,10,15,20-tetrakis-(N-methyl-4-pyridyl)porphine [TMPyP4]	strong distortion of melting curves	bind non-specifically	> 50	< 10								Displacement of the probe (TO or ThT) (TBEV-5 [1]): ~100%; Full product of reverse transcription relative to no-ligand control [2]: inhibits reverse transcriptase; Change of CD at 263 nm of TBEV-5 (TBEV-5 [3]): most pronounced; Binding of TBEV-5 (concentration for 50% TBEV-5 saturation) (TBEV-5 [5]): best binder; Interaction with RNA G4 [6]: specifically interact
O=C1c2cccc(O)c2C(=O)c2c(O)cc(CO)cc21 [Aloe emodin, aloe-emodin]	strong distortion of melting curves				>1	>1						CC50 (in vitro): > 50 µM; EC50 (TBEV strain Neudoerfl [8]): > 50 µM; Virus inhibition in initial screening [9]: no virus inhibition effects; Displacement of ThT (TBEV-5 [1]): did not significantly displace; EC50 (TBEV strain Hypr [11]): > 50 µM
CN(C)c1ccc(Nc2c3ccc(NC(=O)CCN4CCCC4)cc3nc3cc(NC(=O)CCN4CCCC4)ccc23)cc1 [BRACO-19]	strong distortion of melting curves		> 50		>1	>1	> 50	> 50				Virus inhibition in initial screening [9]: no virus inhibition effects; Interaction with RNA G4 [6]: specifically interact; Effect on ZIKV virus titers (ZIKV virus): decrease ZIKV virus titers
COc1ccc2cc3[n+](cc2c1OC)CCc1cc2c(cc1-3)OCO2 [Berberin, berberine]	up to 3.5 °C	specifically bind G4							stable over time	did not inhibit RT	post-entry/fusion phase	CC50 (in vitro): > 50 µM; EC50 (TBEV strain Neudoerfl [8]): 1.26 µM; EC50 [9, 20]: 1.2 to 2.9 µM; Displacement of TO (TBEV-5 [1]): did not displace; Displacement of ThT (TBEV-5 [1]): around 50%; Full product of reverse transcription relative to no-ligand control [2]: does not inhibit RT; Reduction of numbers of viral RNA copies (TBEV strain Neudoerfl [15]): ~25%; EC50 (TBEV strain Hypr [11]): 1.57 µM; Reduction of numbers of viral RNA copies (TBEV strain Hypr [16]): about 40%; Suppression of infectious viral particle formation [17]: partial
CN(C)c1ccc(C(=C2C=CC(=[N+](C)C)C=C2)c2ccc(N(C)C)cc2)cc1 [CV, crystal violet]												CC50 (PS cells; pig): < 1.6 µM
Cc1cnc(CNC(=O)c2c(=O)c3ccc(N4CCCN(C)CC4)nc3n3c2sc2ccccc23)cn1 [CX5461]												Antiviral effect at the lowest non-cytotoxic concentration (TBEV strain Neudoerfl [10]): ^eNo antiviral effect was observed at the lowest non-cytotoxic concentration of 5 μM.; CC50 (PS cells; pig): 14.1 µM; Antiviral effect at the lowest non-cytotoxic concentration (TBEV strain Hypr [12]): ^eNo antiviral effect was observed at the lowest non-cytotoxic concentration of 5 μM.
CCC1=C(C)c2cc3[nH]c(cc4nc(cc5c(CCC(=O)O)c(C)c(cc1n2)n5C)C(CCC(=O)O)=C4C)c(C)c3CC [NMM, N-Methylmesoporphyrin IX]	up to 3.5 °C	specifically bind G4	> 50		>5000	>2 500	0.01	0.02	stable over time	did not inhibit RT	prior to the entry/fusion steps	Concentration that completely suppressed TBEV replication [9]: 1.6 µM; Full product of reverse transcription relative to no-ligand control [2]: inhibits reverse transcriptase; Effect on viral RNA copies [18]: complete inhibition of RNA synthesis; Cell morphology and monolayer cohesion (PS cells): observable changes in cell morphology and in mechanical monolayer cohesion; Viable viral particle formation [17]: no viable viral particle formation
NCCOc1cc(C(=O)Nc2cc(OCCN)c3ccccc3n2)nc(C(=O)Nc2cc(OCCN)c3ccccc3n2)c1 [PDS, Pyridostatin]				< 10					stable over time	strong inhibitory effect	post-entry/fusion phase	CC50 (in vitro): > 50 µM; EC50 (TBEV strain Neudoerfl [8]): 2.94 µM; EC50 [9, 20]: 1.2 to 2.9 µM; Effect on ZIKV NS2B-NS3 protease (ZIKV NS2B-NS3 protease): reduces its catalytic activity; EC50 (TBEV strain Hypr [11]): 1.29 µM; Phase of ZIKV cycle affected (ZIKV): replication period rather than entry; Suppression of infectious viral particle formation [17]: partial; also recorded: complete
C[n+]1cc(NC(=O)c2ccc3ccc4ccc(C(=O)Nc5cc6ccccc6[n+](C)c5)nc4c3n2)cc2ccccc21 [PhenDC3]	strong distortion of melting curves		> 50	< 10	>8.66	>8.08	5.77	5.68	gradually disappeared or dropped significantly	strong inhibitory effect	post-entry/fusion phase	EC50 [9]: ~5 µM; Displacement of the probe (TO or ThT) (TBEV-5 [1]): ~100%; Change of CD at 263 nm of TBEV-5 (TBEV-5 [3]): most pronounced; Inhibition of RdRp activity [19]: almost completely inhibits; Effect on HCV RdRp (HCV RdRp): no significant effect
CN1C(=Cc2cc[n+](C)c3ccccc23)Sc2ccccc21 [TO, thiazole orange]	strong distortion of melting curves	bind non-specifically	1.8									Displacement of ThT (TBEV-5 [1]): almost entirely displaces; Change of CD at 263 nm of TBEV-5 (TBEV-5 [3]): most pronounced
Cc1ccc2c(c1)sc(-c1ccc(N(C)C)cc1)[n+]2C [ThT, thioflavin T]	up to 3.5 °C	specifically bind G4										Displacement of TO (TBEV-5 [1]): does not displace; Antiviral effect at the lowest non-cytotoxic concentration (TBEV strain Neudoerfl [10]): ^eNo antiviral effect was observed at the lowest non-cytotoxic concentration of 5 μM.; CC50 (PS cells; pig): 10.6 µM; Antiviral effect at the lowest non-cytotoxic concentration (TBEV strain Hypr [12]): ^eNo antiviral effect was observed at the lowest non-cytotoxic concentration of 5 μM.
NCCOc1cc(NC(=O)c2cc(OCc3cn(CCC(=O)O)nn3)cc(C(=O)Nc3cc(OCCN)c4ccccc4n3)n2)nc2ccccc12 [cPDS, Carboxy pyridostatin]	strong distortion of melting curves		> 50	< 10	>11.23	>9.05	4.45	5.52	gradually disappeared or dropped significantly		post-entry/fusion phase	EC50 [9]: ~5 µM
